Source: the Kinase Knowledgebase extract (Sharma et al. 2016)

Legend:
PIK3CA (human) [1] = target: PIK3CA (human) (UniProt P42336); assay: Inhibition of PIK3CA Kinase Activity
PIK3CA (human) [2] = target: PIK3CA (human) (UniProt P42336); assay: Inhibition of A2780 Cell Proliferation

Sequence of PIK3CA (human) (P42336 whole entry, looked up): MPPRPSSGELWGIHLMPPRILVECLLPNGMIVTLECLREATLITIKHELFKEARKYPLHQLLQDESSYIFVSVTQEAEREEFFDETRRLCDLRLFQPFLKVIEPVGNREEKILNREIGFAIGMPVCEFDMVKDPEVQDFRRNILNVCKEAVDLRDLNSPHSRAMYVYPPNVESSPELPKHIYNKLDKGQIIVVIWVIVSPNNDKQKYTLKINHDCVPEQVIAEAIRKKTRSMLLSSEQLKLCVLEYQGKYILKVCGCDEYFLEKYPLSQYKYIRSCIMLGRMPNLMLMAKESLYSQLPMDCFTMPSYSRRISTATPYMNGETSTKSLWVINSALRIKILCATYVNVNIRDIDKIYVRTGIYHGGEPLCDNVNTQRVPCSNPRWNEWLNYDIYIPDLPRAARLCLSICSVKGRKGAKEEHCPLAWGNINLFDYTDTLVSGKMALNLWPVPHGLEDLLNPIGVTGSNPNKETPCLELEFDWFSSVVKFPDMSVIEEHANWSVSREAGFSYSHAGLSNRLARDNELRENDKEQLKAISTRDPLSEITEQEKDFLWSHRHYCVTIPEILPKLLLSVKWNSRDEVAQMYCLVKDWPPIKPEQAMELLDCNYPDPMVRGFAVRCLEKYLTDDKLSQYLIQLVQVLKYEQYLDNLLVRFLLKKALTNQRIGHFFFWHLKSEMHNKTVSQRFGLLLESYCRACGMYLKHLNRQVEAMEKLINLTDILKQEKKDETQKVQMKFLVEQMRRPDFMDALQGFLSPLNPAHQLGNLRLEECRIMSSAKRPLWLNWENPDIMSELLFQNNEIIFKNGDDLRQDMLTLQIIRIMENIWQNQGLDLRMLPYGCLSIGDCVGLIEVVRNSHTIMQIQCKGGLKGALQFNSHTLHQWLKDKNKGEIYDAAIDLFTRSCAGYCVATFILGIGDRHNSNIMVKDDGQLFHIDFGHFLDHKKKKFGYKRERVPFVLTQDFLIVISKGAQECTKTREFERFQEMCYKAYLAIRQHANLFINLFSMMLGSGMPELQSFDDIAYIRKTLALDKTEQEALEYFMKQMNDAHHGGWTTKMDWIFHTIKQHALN

| Structure (SMILES) | IC50 (PIK3CA (human) [1]) [nM] | EC50 (PIK3CA (human) [2]) [nM] |
| --- | --- | --- |
| CC(C)(C)OC(=O)N1CC[C@H]1C(=O)Nc1cn2cc(-c3cnc(N)c(C(F)(F)F)c3)ccc2n1 | < 1000 | < 25000 |
| CC(C)(C)OC(=O)N1CCN(c2ccc(C(=O)Nc3cn4cc(-c5cnc(N)c(C(F)(F)F)c5)ccc4n3)cn2)CC1 | < 1000 | < 1000 |
| CCN1CCN(CCCC(=O)Nc2cn3cc(-c4cnc(N)c(C(F)(F)F)c4)ccc3n2)CC1 | < 1000 | < 10000 |
| CC(=O)Nc1cn2cc(-c3cnc(N)c(Oc4cccc(F)c4)n3)ccc2n1 | < 1000 | < 1000 |
| CCNN=Cc1cc(-c2ccc3nc(NC(C)=O)cn3c2)cnc1N | < 1000 | < 10000 |
| CC(=O)Nc1nc2ccc(-c3cnc(N)c(C(F)(F)F)c3)cn2c1C#Cc1ccccn1 | < 1000 | < 10000 |
| CC(=O)Nc1nc2ccc(-c3cnc(N)c(C(F)(F)F)c3)c(F)c2s1 | < 1000 | < 10000 |
| CC(C)C(=O)Nc1cn2cc(-c3cnc(N)c(OCC(F)(F)F)n3)ccc2n1 | < 1000 | < 10000 |
| Nc1ncc(-c2ccc3nc(NC(=O)CCC4CCCCN4)cn3n2)cc1C(F)(F)F (stereo not given) | < 1000 | < 1000 |
| CN(CC(=O)Nc1cn2cc(-c3cnc(N)c(C(F)(F)F)c3)ccc2n1)C(=O)OC(C)(C)C | < 1000 | < 10000 |
| CC(=O)Nc1nc2cc(C)c(-c3cnc(N)c(C(F)(F)F)c3)cc2s1 | < 1000 | < 25000 |
| CC(=O)Nc1nc2ccc(-c3cnc(N)c(C(F)(F)F)c3)cn2c1Br | < 1000 | < 25000 |
| Nc1ncc(-c2ccc3nc(NC(=O)C(F)(F)F)cn3c2)cn1 | < 1000 | < 25000 |
| CC(=O)Nc1cn2cc(-c3ccc(N)nc3F)ccc2n1 | < 1000 | < 10000 |
| CC(=O)Nc1cn2cc(-c3cnc(N)c(CN4CCCC4)c3)ccc2n1 | < 1000 | < 25000 |
| CC(=O)Nc1nc2ccc(-c3cnc(N)c(C(F)(F)F)c3)cn2c1-c1cccc(F)c1 | < 1000 | < 25000 |
| COC(=O)Nc1nc2ccc(-c3ccc(N)nc3)cc2s1 | < 1000 | < 10000 |
| CNC(=O)[C@@H]1CCN1C(=O)Nc1cn2cc(-c3cnc(N)c(C(F)(F)F)c3)ccc2n1 | < 25000 | < 25000 |
| Nc1ncc(-c2ccc3nc(NC(=O)c4ccc(F)nc4)cn3c2)cc1C(F)(F)F | < 1000 | < 25000 |
| Nc1ncc(-c2ccc3nc(NC(=O)CO[C@@H]4CCNC4)cn3c2)cc1C(F)(F)F | < 1000 | < 10000 |
